What was measured:
[1] = system: post-surgical inflammation in the eye; test: Intracameral fiber mesh or cylinder after surgery (Example 12); format: in vivo; settings: steady release over several months, e.g., three months
Description: Fibers or cylinders are formed from Compound 1 according to the methods described above. The fibers are woven into a mesh and are placed into the eye of a subject having received surgery.

[2] = 37° C.
Experimental: Heat-molded pellets from Compound 1 (˜1 mm×1 mm) were placed in 20 mL glass vials and 2 mL of release buffer (either 100% phosphate buffered saline (PBS), 1% fetal bovine serum (FBS) in PBS, or 100% FBS) was added. Samples were incubated at 37° C. on a shaker rotating at 115 rpm. After 1 day, 3 days, 7 days, and subsequently in alternating 3 and 4 day intervals (i.e., 1, 3, 7, 10, 14 days etc.), release buffer was sampled directly (PBS) or syringe filtered, proteins were precipitated with acetonitrile, and drug release products were extracted. The samples were analyzed by high performance liquid chromatography (HPLC) to quantify drug products. Cumulative drug release was calculated and plotted as a percentage of the total drug in each pellet released over time (FIG. 1E).
Drug release from the glassy state heat molded pellets was carried out in PBS and/or 100% FBS, as described in Example 1, for different time periods.
Drug release from the pellets (˜1 mm×1 mm and 1 mg of total mixture) was carried out in PBS as described in Example 1. Cumulative drug release was calculated and plotted as a percentage of the total drug released over time.

[3] = system: post-surgical inflammation in the eye; test: Schlemm's canal fiber or tube implant after surgery (Example 11); format: in vivo; settings: release by surface erosion over weeks to months
Description: A fiber or tube of Compound 1 is formed using the methods described above.

[4] = system: VEGF-induced retinal vascular leakage; test: VEGF-induced retinal vascular leakage after intravitreal implantation, fundus microscopy and fluorescein angiography; format: in vivo; settings: Dutch belted rabbits, intravitreal 27 G and 30 G cylinders; VEGF at 1 week and 10 weeks post-implantation; versus sham injection
Experimental: The cylinders were extruded with 27 G and 30 G nozzles to get diameters ˜0.2 mm and ˜0.12 mm respectively. The cylinders were cut to different lengths, ETO gas sterilized, and injected intravitreally into the eyes of Dutch belted rabbits. VEGF was injected intravitreally at 1 week and 10 weeks post-implantation to induce retinal vascular leakage. Sham injection was used as a negative control.

[5] = system: inflammation or neovascularization; test: Micro- or nanoparticles injected into the suprachoroidal space (Example 13); format: in vivo; settings: release over months to years
Experimental: Micro- or nanoparticles of Compound 1 are formed using the methods described above. The particles are injected into the suprachoroidal space of a subject with an ocular condition associated with inflammation or neovascularization or as an adjunctive therapy to reduce inflammation associated with ocular surgery.

rat eyes = test: Surface erosion of intravitreal implants in rat eyes, fundus microscopy; format: in vivo; settings: heat-molded cylinders injected intravitreally
Experimental: The cylinders were injected intravitreally into rat eyes.

[6] = system: tissue response to the device; test: Coating on a MIGS device inserted into the eye (Example 10); format: in vivo; settings: drug released over months to years
Description: Coating of Compound 1 is applied onto a MIGS device as described in the methods above.

[7] = system: post-surgical inflammation and infection; test: Intracameral implants of Compound 1 and 9 in subjects receiving ocular surgery (Example 21); format: in vivo; settings: intracameral implants of both compounds; dexamethasone and fusidic acid release over days to weeks to a few months
Description: Cylinders, pellets, or fibrous meshes of Compound 1 and 9 are formed using the methods described above. The implants are inserted intracamerally into subjects that are receiving an ocular surgical procedure.

[8] = Intravitreal cylinders for inflammatory or neovascularization conditions (Example 9); format: in vivo; settings: cylinders injected into the vitreous humour
Experimental: Cylinders of Compound 1 are formed using methods described above. The cylinders are injected into the vitreous humour and release dexamethasone to the surrounding tissues including tissues in the anterior eye, the posterior eye, and surrounding tissues. […] The intravitreal implants release drug that may be used in subjects with diabetic macular edema, macular edema from retinal vein occlusion, uveitis, cystoid macular edema, post-surgical inflammation (e.g. cataract or glaucoma surgery), age-related macular degeneration, and other ocular conditions.

[9] = Dexamethasone in the vitreous humour after intravitreal injection of cylinders; format: in vivo; settings: New Zealand white rabbits, intravitreal cylinders 30 G×1 mm, 30 G×6 mm, 23 G×6 mm
Experimental: The cylinders were injected intravitreally into New Zealand white rabbits and dexamethasone was quantified in the vitreous humour at different time points.

[10] = system: endotoxin-induced inflammation in the eye; test: Endotoxin (LPS)-induced inflammation in the eye after intravitreal implantation, OCT vitreal cell count and retinal thickness; format: in vivo; settings: rat, intravitreal 23 G and 30 G implants; LPS 1 day (acute) or 60 days (sub-chronic) post-implantation
Experimental: The implants were loaded into 23 G and 30 G needles respectively and were sterilized by ethylene oxide (ETO) gas. An acute study evaluating only the 23 G heat molded implants was performed and a sub-chronic study evaluating both implants followed. […] Inflammation in the eye was induced using an intravitreal injection of the endotoxin lipopolysaccharide (LPS) 1-day post-implantation for the acute study and 60 days post-implantation for the sub-chronic study. […] Optical coherence tomography (OCT) was used to image the eyes (FIG. 6E) and inflammation was assessed by quantifying the number of cells in the vitreous humour and the thickness of the retinal tissue measured from the OCT images.

intraocular pressure [11] = test: Suprachoroidal insert of Compound 1 in a subject with glaucoma (Example 14); format: in vivo; settings: cylinder or tube as conduit from anterior chamber into suprachoroidal space; months to years
Description: A cylinder or tube of Compound 1 is formed using the methods described above. The implant is inserted into the eye of a subject with glaucoma to create a conduit from the anterior chamber into the suprachoroidal space.

intraocular pressure [12] = test: Intracameral implants of Compound 7 in subjects with glaucoma (Example 17); format: in vivo; settings: intracameral cylinders, pellets or fibrous meshes; anecortave release by surface erosion over months to years
Description: Cylinders, pellets, or fibrous meshes of Compound 7 are formed using the methods described above. The implants are inserted intracamerally into subjects with glaucoma.

intraocular pressure [13] = test: Suprachoroidal insert of Compound 7 in a subject with glaucoma (Example 18); format: in vivo; settings: cylinder or tube as conduit into suprachoroidal space, anecortave release; months to years
Description: A cylinder or tube of Compound 7 is formed using the methods described above. The implant is inserted into the eye of a subject with glaucoma to create a conduit from the anterior chamber into the suprachoroidal space.

[14] = system: post-surgical infection in the eye; test: Intracameral implants of Compound 9 in subjects receiving ocular surgery (Example 19); format: in vivo; settings: fusidic acid release over days to weeks to a few months
Description: Cylinders, pellets, or fibrous meshes of Compound 9 are formed using the methods described above. The implants are inserted intracamerally into subjects that are receiving an ocular surgical procedure.

Compound | inflammation in the eye [1] | in vitro drug release, dose and duration ([2]; extruded cylinders 30 G×1 mm, 30 G×6 mm, 23 G×6 mm, PBS) | cumulative drug release plotted over time ([2]; glassy state heat molded pellets ~1 mm×1 mm, PBS and/or 100% FBS) | erosion of pellets over time (representative images) ([2]; heat-molded pellets ~1 mm×1 mm, 100% FBS) | post-surgical inflammation [3] | retinal vascular leakage [4] | inflammation or neovascularization [5] | erosion of the implant in the eye over time (fundus microscopy) (rat eyes) | tissue response and fibrosis [6] | post-surgical inflammation and infection [7] | duration of dexamethasone release by surface erosion [8] | dexamethasone concentration in the vitreous humour over time [9] | inflammation in the eye (vitreal cell count and retinal thickness by OCT) [10] | intraocular pressure (intraocular pressure [11]) | intraocular pressure (intraocular pressure [12]) | intraocular pressure (intraocular pressure [13]) | post-surgical infection [14]
C[C@@H]1C[C@H]2[C@@H]3CCC4=CC(=O)C=C[C@]4(C)[C@@]3(F)[C@@H](O)C[C@]2(C)[C@@]1(O)C(=O)COC(=O)OCCOCCOCCOC(=O)OCC(=O)[C@@]1(O)[C@H](C)C[C@H]2[C@@H]3CCC4=CC(=O)C=C[C@]4(C)[C@@]3(F)[C@@H](O)C[C@@]21C [Compound 1, Dexamethasone-Triethylene Glycol-Dexamethasone] | Inflammation in the eye is reduced | roughly following surface erosion theory | mostly linearly | surface erosion over time | prevent or reduce inflammation associated with the surgical procedure | inhibited VEGF-induced retinal vascular leakage | reduces inflammation or neovascularization | surface erosion of the implant | inhibit a tissue response to the device and reduce fibrosis | reduce inflammation associated with the surgery and prevent infection | months to years | consistent dose of dexamethasone is released | inhibit endotoxin-induced inflammation in the eye | reduce intraocular pressure |  |  | 
Anecortave-Triethylene Glycol-Anecortave [Compound 7] |  |  |  |  |  |  |  |  |  |  |  |  |  |  | lower intraocular pressure in the eye | reduce intraocular pressure | 
Fusidic Acid-Triethylene Glycol-Fusidic Acid (carbonate ester) [Compound 9] |  |  |  |  |  |  |  |  |  | reduce inflammation associated with the surgery and prevent infection |  |  |  |  |  |  | prevent infection

Reference: patent US11612567B2, “Ocular inserts comprising a covalently linked steroid dimer” (Ripple Therapeutics Corporation, priority 2018, dated 2023)
